Test results: patent publication US9790233B2, “Compositions and methods of modulating 15-PGDH activity” (CASE WESTERN RESERVE UNIVERSITY, priority 2012, dated 2017)
Read-outs that look alike come from different tables or passages of the source.

Tests used:
Format in all cases: cell-based
[1] = test system: 15-PGDH luciferase fusion construct in LS174T reporter cell line; assay: 15-PGDH-luciferase fusion gene reporter induction, LS174T cells; settings: Homo sapiens
[2] = test system: 15-PGDH luciferase fusion construct in Vaco503 reporter cell line; assay: 15-PGDH-luciferase fusion gene reporter induction, V503 cells
[3] = test system: 15-PGDH luciferase fusion construct in V9m reporter cell line; assay: 15-PGDH-luciferase fusion gene reporter induction, V9m cells
[4] = read-out: Ls174T-SC1 reporter activity, % ([…]), […], Table 18, read-out: Ls174T-SC1 reporter activity, % (2.5 μM)
[5] = read-out: Ls174T-SC1 reporter activity, % ([…]), […], Table 18, read-out: Ls174T-SC1 reporter activity, % (7.5 μM)
[6] = read-out: V503-3H9-7 reporter activity, % ([…]), […], Table 18, read-out: V503-3H9-7 reporter activity, % (2.5 μM)
[7] = read-out: V503-3H9-7 reporter activity, % ([…]), […], Table 18, read-out: V503-3H9-7 reporter activity, % (7.5 μM)
[8] = read-out: V9M-SC3 Reporter activity ([…]) (%), […], Table 18, read-out: V9M-SC3 Reporter activity (2.5 μM) (%)
[9] = read-out: V9M reporter activity ([…]), […], % increased luciferase activity over basal level, 100 = doubling, read-out: V9M reporter activity (2.5 uM)
[10] = read-out: Ls174T-SC1 reporter activity, % ([…]), LS174T reporter cells, […] compound, % induction of luciferase activity over basal level, read-out: Ls174T-SC1 reporter activity, % (2.5 μM)
[11] = read-out: Ls174T-SC1 reporter activity, % ([…]), LS174T reporter cells, […] compound, % induction of luciferase activity over basal level, read-out: Ls174T-SC1 reporter activity, % (7.5 μM)
[12] = read-out: V503-3H9-7 reporter activity, % ([…]), V503 reporter cells, […] compound, % induction of luciferase activity over basal level, read-out: V503-3H9-7 reporter activity, % (2.5 μM)
[13] = read-out: V503-3H9-7 reporter activity, % ([…]), V503 reporter cells, […] compound, % induction of luciferase activity over basal level, read-out: V503-3H9-7 reporter activity, % (7.5 μM)
[14] = read-out: V9M-SC3 Reporter activity ([…]) (%), V9m reporter cells, […] compound, % induction of luciferase activity over basal level, read-out: V9M-SC3 Reporter activity (2.5 μM) (%)
[15] = read-out: V9M-SC3 Reporter activity ([…]), %, V9m reporter cells, […] compound, % induction of luciferase activity over basal level, read-out: V9M-SC3 Reporter activity (7.5 μM), %
[16] = V9m reporter cells, […] compound, % induction of luciferase activity over basal level

Compound	activation at […] [1, 4] [%]	activation at […] [1, 5] [%]	activation at […] [2, 6] [%]	activation at […] [2, 7] [%]	activation at […] [3, 8] [%]	other results
COc1ccc(N(CC(=O)Nc2cccnc2)S(=O)(=O)c2ccccc2)c(OC)c1 [310875−38−8]	27.7	102	64.1	148	-8.72	–
COc1ccc(Cl)cc1N(CC(=O)Nc1cccnc1)S(=O)(=O)c1ccccc1 [328012−52−8]	128	176	243	-4.89	-15.4	–
O=C(CN(c1ccccc1)S(=O)(=O)c1ccccc1)Nc1cccnc1 [331727−07−2]	-7.53	9.47	8.13	1.14	28.2	–
COc1ccc(OC)c(N(CC(=O)NC2CCCCC2)S(=O)(=O)c2ccccc2)c1 [333446-93-8]	12.9	13.5	53.8	44.1	16.5	–
COC(=O)c1ccccc1NC(=O)CN(c1cc(OC)ccc1OC)S(=O)(=O)c1ccccc1 [333449-58-4]	-5.9	-3.99	50.1	20.7	6.5	–
COc1cccc(N(CC(=O)Nc2cccnc2)S(=O)(=O)c2ccccc2)c1 [335392−39−7]	-0.54	14.3	18.9	21.9	-12.8	–
COc1ccc(OC)c(N(CC(=O)Nc2ccc(Cl)cc2)S(=O)(=O)c2ccccc2)c1 [339589-53-6]	51.2	89.7	200	105	-1	–
COc1ccc(OC)c(N(CC(=O)Nc2ccc(Cl)c(Cl)c2)S(=O)(=O)c2ccccc2)c1 [339589-55-8]	-5.54	8.81	64	52.5	-7	–
COc1ccccc1N(CC(=O)Nc1cccnc1)S(=O)(=O)c1ccccc1 [367929−80−4]	18.8	-18	-0.87	-6.22	-27.8	–
COc1ccc(N(CC(=O)Nc2cccnc2)S(=O)(=O)c2ccccc2)cc1 [418783−65−0]	-12.6	5.81	11.6	6.68	0.51	–
COc1ccc(OC)c(N(CC(=O)Nc2ccc(F)cc2)S(=O)(=O)c2ccccc2)c1 [426231-26-7]	16.2	22.1	64	113	10	–
CCOc1ccc(N(CC(=O)Nc2cccnc2)S(=O)(=O)c2ccccc2)cc1 [428473−22−7]	-15.5	10.6	19.1	19.8	-17.9	–
CCc1ccc(N(CC(=O)Nc2cccnc2)S(=O)(=O)c2ccccc2)cc1 [461439−84−9]	4.83	-35	1.57	5.41	-30.3	–
COc1ccc(OC)c(N(CC(=O)Nc2cccnc2)S(=O)(=O)c2ccc(C)cc2)c1 [505072−23−1]	101	109	242	239	94.7	–
COc1ccc(OC)c(N(CC(=O)Nc2cccnc2)S(C)(=O)=O)c1 [527699−66−7]	7.31	-29.6	38.8	70.9	-31	–
CCc1ccccc1N(CC(=O)Nc1cccnc1)S(=O)(=O)c1ccccc1 [528580−69−0]	11.5	-4.81	66	110	4.71	–

Compound	activation at […] [1, 4] [%]	activation at […] [1, 5] [%]	activation at […] [2, 6] [%]	activation at […] [2, 7] [%]	activation at […] [3, 8] [%]	other results
COc1ccc(OC)c(N(CC(=O)Nc2ccccc2C(N)=O)S(=O)(=O)c2ccccc2)c1 [530107-57-4]	5.45	8.27	52.6	84.4	59.5	–
COc1ccc(OC)c(N(CC(=O)Nc2cccnc2)S(=O)(=O)c2ccc(OC)c(OC)c2)c1 [680599−58−0]	11.5	-13.8	16.7	28.9	-5.29	–
O=C(CN(c1ccc2c(c1)OCCO2)S(=O)(=O)c1ccccc1)Nc1cccnc1 [701217-00-7]	-6.89	-0.54	20.1	33.4	-2.05	–
O=C(CN(c1cc(Cl)ccc1Cl)S(=O)(=O)c1ccccc1)Nc1cccnc1 [833428−03−8]	25.1	47.4	96.4	150	-4.1	–
CS(=O)(=O)c1sc2nc(-c3cccs3)cc(-c3ccccc3)c2c1N [SW033290, 2-(methylsulfonyl)-4-phenyl-6-(thiophen-2-yl)thieno[2,3-b]pyridin-3-amine]	–	–	–	–	–	activation at […] ([1]; read-out: LS174T reporter activity ([…]), […], % increased luciferase activity over basal level, read-out: LS174T reporter activity (2.5 uM)): -0.24%; activation at […] ([1]; read-out: LS174T reporter activity ([…]), […], % increased luciferase activity over basal level, read-out: LS174T reporter activity (7.5 uM)): -6.58%; activation at […] ([2]; read-out: V503 reporter activity ([…]), […], % increased luciferase activity over basal level, read-out: V503 reporter activity (2.5 uM)): 30.9%; activation at […] ([2]; read-out: V503 reporter activity ([…]), […], % increased luciferase activity over basal level, read-out: V503 reporter activity (7.5 uM)): 17.7%; activation at […] [3, 9]: -34.3%; activation at […] ([3]; read-out: V9M reporter activity ([…]), […], % increased luciferase activity over basal level, 100 = doubling, read-out: V9M reporter activity (7.5 uM)): -25.4%
Nc1c(C(=O)Cc2ccccc2)sc2nc(-c3cccs3)cc(-c3ccccc3)c12 [SW033292]	–	–	–	–	–	activation at […] [3, 9]: 1.51%
COc1ccc(OC)c(N(CC(=O)O)S(=O)(=O)c2ccccc2)c1 [SW122063]	–	–	–	–	–	activation at […] [1, 10]: 22.6%; activation at […] [1, 11]: 19.9%; activation at […] [2, 12]: 42.5%; activation at […] [2, 13]: 44.1%; activation at […] [3, 14]: 1.67%; activation at […] [3, 15]: 4.8%
COc1ccc(OC)c(N(CC(=O)N2CCCCC2)S(=O)(=O)c2ccccc2)c1 [SW131633]	–	–	–	–	–	activation at […] [1, 10]: 8.42%; activation at […] [1, 11]: 150%; activation at […] [2, 12]: 104%; activation at […] [2, 13]: -40.6%; activation at […] [3, 14]: 77.2%; activation at […] [3, 15]: 141%
COc1ccc(OC)c(N(CC(N)=O)S(=O)(=O)c2ccccc2)c1 [SW131635]	–	–	–	–	–	activation at […] [1, 10]: 111%; activation at […] [1, 11]: 14.1%; activation at […] [2, 12]: -37.7%; activation at […] [2, 13]: 14.4%; activation at […] [3, 14]: 11.4%; activation at […] [3, 15]: 15.1%
COc1ccc(OC)c(N(CC(=O)Nc2cccnc2)S(=O)(=O)c2ccc(C)cc2)c1 [SW202939]	–	–	–	–	–	activation at […] [1, 10]: 75.5%; activation at […] [1, 11]: 166%; activation at […] [2, 12]: 26.6%; activation at […] [2, 13]: 27.3%; activation at […] [3, 14]: 75.3%; activation at […] [3, 15]: 128%
COc1ccc(OC)c(N(CC(=O)Nc2ccccn2)S(=O)(=O)c2ccccc2)c1 [SW202941]	–	–	–	–	–	activation at […] [1, 10]: -23.8%; activation at […] [1, 11]: -43.2%; activation at […] [2, 12]: 75.9%; activation at […] [2, 13]: 83.5%; activation at […] [3, 14]: -10.9%; activation at […] [3, 15]: 2.57%
COc1ccc(OC)c(N(CC(=O)Nc2cccnc2)S(=O)(=O)c2ccccc2C)c1 [SW202943]	–	–	–	–	–	activation at […] [1, 10]: 33.1%; activation at […] [1, 11]: 55.7%; activation at […] [2, 12]: 72.3%; activation at […] [2, 13]: 147%; activation at […] [3, 14]: 7.12%; activation at […] [3, 15]: 17.8%
COc1ccc(OC)c(N(CC(=O)Nc2cccnc2)S(=O)(=O)c2ccccc2C(F)(F)F)c1 [SW202944]	–	–	–	–	–	activation at […] [1, 10]: 32.5%; activation at […] [1, 11]: 15.8%; activation at […] [2, 12]: 131%; activation at […] [2, 13]: 94.6%; activation at […] [3, 14]: -0.95%; activation at […] [3, 15]: -3.73%
COc1ccc(OC)c(N(CC(=O)Nc2cccnc2)S(=O)(=O)c2ccccc2C#N)c1 [SW202945]	–	–	–	–	–	activation at […] [1, 10]: 45.7%; activation at […] [1, 11]: 135%; activation at […] [2, 12]: 34%; activation at […] [2, 13]: 127%; activation at […] [3, 14]: 28.5%; activation at […] [3, 15]: 90%
COc1ccc(OC)c(N(CC(=O)Nc2cncc(Cl)c2)S(=O)(=O)c2ccccc2)c1 [SW202990]	–	–	–	–	–	V9M-SC3 Reporter activity ([…]) (%) [3, 16]: 3.57%; V9M-SC3 Reporter activity ([…]), % [3, 16]: 23.49%
